From PubChem BioAssay AID248 (DTP/NCI, 2004)
Inconclusive results and toxic doses are left out. Rule as the data show it: active = T/C of 150% or more; inactive = T/C below 125%.

Tested on: L1210 leukemia ip in BDF1 mice, survival T/C
Assay: NCI In Vivo Anticancer Drug Screen. Data for tumor model L1210 Leukemia (intraperitoneal) in B6D2F1 (BDF1) mice
Settings: higher = longer survival
Procedure, shortened: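 Antitumor effect is assessed in tumor-bearing animals. Survival in the compound arm is compared with a vehicle-dosed control arm and expressed as their quotient.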

[1] = endpoint: mean survival time, dose: 100.0 mg/kg/injection, schedule: Q04DX003 (ip), vehicle: saline with Tween-80
[2] = endpoint: mean survival time, dose: 200.0 mg/kg/injection, schedule: Q04DX003 (ip), vehicle: saline with Tween-80
[3] = endpoint: mean survival time, dose: 400.0 mg/kg/injection, schedule: Q04DX003 (ip), vehicle: saline with Tween-80
[4] = endpoint: mean survival time, dose: 100.0 mg/kg/injection, schedule: Q01DX001 (ip), vehicle: Klucel (hydroxypropylcellulose) (HPC)
[5] = endpoint: mean survival time, dose: 100.0 mg/kg/injection, schedule: Q04DX003 (ip), vehicle: Klucel (hydroxypropylcellulose) (HPC)
[6] = endpoint: mean survival time, dose: 200.0 mg/kg/injection, schedule: Q01DX001 (ip), vehicle: Klucel (hydroxypropylcellulose) (HPC)
[7] = endpoint: mean survival time, dose: 400.0 mg/kg/injection, schedule: Q01DX001 (ip), vehicle: Klucel (hydroxypropylcellulose) (HPC)
[8] = endpoint: mean survival time, dose: 100.0 mg/kg/injection, schedule: Q01DX001 (ip), vehicle: saline
[9] = endpoint: mean survival time, dose: 200.0 mg/kg/injection, schedule: Q01DX001 (ip), vehicle: saline
[10] = endpoint: mean survival time, dose: 400.0 mg/kg/injection, schedule: Q01DX001 (ip), vehicle: saline
[11] = endpoint: mean survival time, dose: 100.0 mg/kg/injection, schedule: Q01DX009 (ip), vehicle: Klucel (hydroxypropylcellulose) (HPC)
[12] = endpoint: mean survival time, dose: 200.0 mg/kg/injection, schedule: Q01DX009 (ip), vehicle: Klucel (hydroxypropylcellulose) (HPC)
[13] = endpoint: mean survival time, dose: 200.0 mg/kg/injection, schedule: Q04DX003 (ip), vehicle: Klucel (hydroxypropylcellulose) (HPC)
[14] = endpoint: mean survival time, dose: 400.0 mg/kg/injection, schedule: Q01DX009 (ip), vehicle: Klucel (hydroxypropylcellulose) (HPC)
[15] = endpoint: mean survival time, dose: 400.0 mg/kg/injection, schedule: Q04DX003 (ip), vehicle: Klucel (hydroxypropylcellulose) (HPC)
[16] = endpoint: mean survival time, dose: 100.0 mg/kg/injection, schedule: Q04DX002 (ip), vehicle: saline with Tween-80
[17] = endpoint: mean survival time, dose: 50.0 mg/kg/injection, schedule: Q01DX009 (ip), vehicle: saline with Tween-80
[18] = endpoint: mean survival time, dose: 100.0 mg/kg/injection, schedule: Q01DX009 (ip), vehicle: saline with Tween-80
[19] = endpoint: mean survival time, dose: 200.0 mg/kg/injection, schedule: Q01DX009 (ip), vehicle: saline with Tween-80

Measured: T/C

O=C(CCCCCCCCC(=O)OO)OO (tested in a mixture with another compound)
inactive: [1] 98 % of control | [2] 92 % of control | [3] 90 % of control

CCOC(=O)Nc1cc(NCC(O)CN(C)c2ccccc2)c(N)c(NC(=O)OCC)n1 (configuration not stated)
inactive: endpoint: mean survival time, dose: 100.0 mg/kg/injection, schedule: Q01DX001 (ip), vehicle: carboxymethylcellulose (CMC) 87 % of control | endpoint: mean survival time, dose: 200.0 mg/kg/injection, schedule: Q01DX001 (ip), vehicle: carboxymethylcellulose (CMC) 87 % of control | endpoint: mean survival time, dose: 400.0 mg/kg/injection, schedule: Q01DX001 (ip), vehicle: carboxymethylcellulose (CMC) 92 % of control

CCOC(=O)CCc1c(C(=O)OCC)[nH]c(C)c1C(=O)C(=O)OC
inactive: endpoint: mean survival time, dose: 25.0 mg/kg/injection, schedule: Q04DX003 (ip), vehicle: Klucel (hydroxypropylcellulose) (HPC) 101 % of control | endpoint: mean survival time, dose: 50.0 mg/kg/injection, schedule: Q04DX003 (ip), vehicle: Klucel (hydroxypropylcellulose) (HPC) 98 % of control | [4] 95 % of control | [5] 103 % of control | [6] 93 % of control | [7] 90 % of control

COc1ccccc1NC(=O)NCc1ccco1
inactive: endpoint: mean survival time, dose: 77.0 mg/kg/injection, schedule: Q01DX Z (ip), vehicle: methylcellulose (MC) 90 % of control | endpoint: mean survival time, dose: 116.0 mg/kg/injection, schedule: Q01DX Z (ip), vehicle: methylcellulose (MC) 103 % of control | endpoint: mean survival time, dose: 175.0 mg/kg/injection, schedule: Q01DX Z (ip), vehicle: methylcellulose (MC) 105 % of control

CNc1ccccc1C(=O)N/N=C/c1ccc(OC)cc1
inactive: endpoint: mean survival time, dose: 100.0 mg/kg/injection, schedule: Q04DX002 (ip), vehicle: saline 102 % of control | endpoint: mean survival time, dose: 200.0 mg/kg/injection, schedule: Q04DX002 (ip), vehicle: saline 99 % of control | endpoint: mean survival time, dose: 400.0 mg/kg/injection, schedule: Q04DX002 (ip), vehicle: saline 102 % of control

Nc1ccc(/C=C/c2ccnc3ccccc23)cc1
inactive: endpoint: mean survival time, dose: 0.5 mg/kg/injection, schedule: Q01DX015 (ip), vehicle: saline 101 % of control | endpoint: mean survival time, dose: 1.0 mg/kg/injection, schedule: Q01DX015 (ip), vehicle: saline 101 % of control | endpoint: mean survival time, dose: 2.0 mg/kg/injection, schedule: Q01DX015 (ip), vehicle: saline 101 % of control | endpoint: mean survival time, dose: 4.0 mg/kg/injection, schedule: Q01DX015 (ip), vehicle: saline 101 % of control | endpoint: mean survival time, dose: 50.0 mg/kg/injection, schedule: Q01DX001 (ip), vehicle: saline 95 % of control | [8] 97 % of control | [9] 95 % of control | [10] 105 % of control

C/C(=C1\C(=O)Nc2ccccc21)c1cccnc1
inactive: endpoint: mean survival time, dose: 25.0 mg/kg/injection, schedule: Q01DX Z (ip), vehicle: carboxymethylcellulose (CMC) 103 % of control | endpoint: mean survival time, dose: 50.0 mg/kg/injection, schedule: Q01DX Z (ip), vehicle: carboxymethylcellulose (CMC) 96 % of control | endpoint: mean survival time, dose: 100.0 mg/kg/injection, schedule: Q01DX Z (ip), vehicle: carboxymethylcellulose (CMC) 103 % of control | endpoint: mean survival time, dose: 200.0 mg/kg/injection, schedule: Q01DX Z (ip), vehicle: carboxymethylcellulose (CMC) 111 % of control

CCOC(=O)C1(C)C(=O)CC2c3nc4ccccc4cc3CN2C1=O (configuration not stated)
inactive: [11] 109 % of control | [5] 107 % of control | [12] 113 % of control | [13] 100 % of control | [14] 92 % of control | [15] 97 % of control

C=CC(C)(CC/C=C(\C)CCC=C(C)C)OC(=O)NC(=O)C(Cl)(Cl)Cl (configuration not stated)
inactive: endpoint: mean survival time, dose: 50.0 mg/kg/injection, schedule: Q01DX009 (ip), vehicle: Klucel (hydroxypropylcellulose) (HPC) 103 % of control | [4] 111 % of control | [11] 100 % of control | [6] 101 % of control | [12] 97 % of control | [7] 105 % of control

CCOC(=O)COCC(=O)OCC
inactive: [16] 98 % of control | endpoint: mean survival time, dose: 200.0 mg/kg/injection, schedule: Q04DX002 (ip), vehicle: saline with Tween-80 98 % of control | endpoint: mean survival time, dose: 400.0 mg/kg/injection, schedule: Q04DX002 (ip), vehicle: saline with Tween-80 102 % of control

CCCCCc1cnc(NCCCC(N)C(=O)O)nc1 (configuration not stated)
inactive: endpoint: mean survival time, dose: 25.0 mg/kg/injection, schedule: Q04DX002 (ip), vehicle: saline with Tween-80 95 % of control | endpoint: mean survival time, dose: 50.0 mg/kg/injection, schedule: Q04DX002 (ip), vehicle: saline with Tween-80 95 % of control | [16] 95 % of control

C=CCc1ccc(OCCOCCNC2CC3CCC2(C)C3(C)C)c(OC)c1 (configuration not stated)
inactive: [5] 89 % of control

O=C1/C(=C\c2cccc3ccccc23)CS(=O)(=O)C/C1=C/c1cccc2ccccc12
inactive: [8] 95 % of control | [9] 94 % of control | [10] 94 % of control

CC(N=CN(C)C)c1cccc2ccccc12 (configuration not stated)
inactive: endpoint: mean survival time, dose: 75.0 mg/kg/injection, schedule: Q01DX009 (ip), vehicle: saline with Tween-80 102 % of control | [1] 97 % of control | endpoint: mean survival time, dose: 150.0 mg/kg/injection, schedule: Q01DX009 (ip), vehicle: saline with Tween-80 112 % of control | [2] 102 % of control | endpoint: mean survival time, dose: 300.0 mg/kg/injection, schedule: Q01DX009 (ip), vehicle: saline with Tween-80 112 % of control

O=C(O)CC1CCC(NC(=O)NCCCl)CC1 (configuration not stated)
inactive: endpoint: mean survival time, dose: 100.0 mg/kg/injection, schedule: Q01DX001 (ip), vehicle: saline with Tween-80 105 % of control | endpoint: mean survival time, dose: 200.0 mg/kg/injection, schedule: Q01DX001 (ip), vehicle: saline with Tween-80 102 % of control

CCCCCCCCCCCCCCCCCCCC/C=C/C1CC(=O)OC1=O (configuration not stated)
inactive: [11] 98 % of control | [5] 95 % of control | [12] 96 % of control | [13] 98 % of control | [14] 96 % of control | [15] 113 % of control

Cc1c(C)c(C)c(CSC(N)=Nc2ccccc2)c(C)c1C
inactive: [17] 98 % of control | [18] 102 % of control | [19] 102 % of control

O=C1Nc2ccccc2/C1=N/N=C/c1cc(Cl)cc(Cl)c1O
inactive: [18] 90 % of control | [1] 90 % of control | [19] 92 % of control | [2] 90 % of control | endpoint: mean survival time, dose: 400.0 mg/kg/injection, schedule: Q01DX009 (ip), vehicle: saline with Tween-80 91 % of control | [3] 91 % of control

Nc1nc(N)nc(-c2ccccn2)n1
inactive: endpoint: mean survival time, dose: 12.5 mg/kg/injection, schedule: Q01DX009 (ip), vehicle: saline with Tween-80 105 % of control | endpoint: mean survival time, dose: 25.0 mg/kg/injection, schedule: Q01DX009 (ip), vehicle: saline with Tween-80 92 % of control | [17] 105 % of control

O=C1C=C[C@H](O)[C@@]2(CO)O[C@@H]12
inactive: endpoint: median survival time, dose: 0.62 mg/kg/injection, schedule: Q01DX009 (ip), vehicle: saline with Tween-80 101 % of control | endpoint: median survival time, dose: 1.25 mg/kg/injection, schedule: Q01DX009 (ip), vehicle: saline with Tween-80 108 % of control | endpoint: median survival time, dose: 2.5 mg/kg/injection, schedule: Q01DX009 (ip), vehicle: saline with Tween-80 113 % of control | endpoint: median survival time, dose: 5.0 mg/kg/injection, schedule: Q01DX009 (ip), vehicle: saline with Tween-80 120 % of control | endpoint: median survival time, dose: 10.0 mg/kg/injection, schedule: Q01DX009 (ip), vehicle: saline with Tween-80 120 % of control
